Source: patent publication US6159733A, “Method for photoinactivating malignant cells” (priority 1996, dated 2000)
“Also recorded” adds a separate entry of the source.

Legend:
[1] = system: pluripotent stem cells (Ly-5.1 donor BM in Ly-5.2 mice); assay: Bone marrow transplantation and chimerism assay; type: in vivo; conditions: for mice died two months after transplant: sub-lethally irradiated
Text: Animals. C57B1/6 (Ly-5.2) and B6SJ-cd45 ^b pep 3^b /BOY J (Ly-5.1), were obtained from The Jackson Laboratories (Bar Harbor, Me.) and were maintained in the animal facility of the New York Blood Center. After gamma-irradiation, the animals were housed in microisolator cages and provided with autoclaved food and autoclaved acidified water (pH=3) ad libitum. Preparation of bone marrow cell suspensions--Ly-5.1 mice were used as the source of donor BM. Mice (8-10 weeks old) were killed and the BM was harvested by flushing the femoral shafts with Hank's balanced salt solution (HBSS), pH 7.4. The cell suspensions were centrifuged, washed once and the cells were finally resuspended in HBSS--10% vol/vol fetal bovine serum (FBS, Gemini Bioproducts Inc., Calabasas, Calif.).
Photosensitization. Aliquots of a 1.87 mM Pc 4 (kindly provided by Dr. M. E. Kenney) stock solution in dimethyl sulfoxide were kept at -80° C. in autoclaved brown glass vials. Immediately prior to the photosensitization, Pc4 was thawed and diluted in dimethyl formamide to yield a 10 μM working solution. […] Pc 4 was used at 15 nM throughout the experiments.
BM and cell line samples, were incubated with 15 nM Pc 4 for two hours at 37° C. at cell concentrations of 1.5×10^7 cells/mL. Aliquots of 1.5 mL were transferred to 24-well plates; separate plates were used for each sample.
Photoinactivation. The light source used was a filtered xenon short arc lamp (Versa-Light, Model UV-R6G, Medic Lightech, Ltd., Haifa, Israel). It was used to deliver red light (λ 600-700 nm) to the sensitized cells. After a 20 minute warm up period of the instrument, the distance from the light source to the bottom of the 24-well plate was adjusted to obtain a fluence rate of 26.6 mW/cm^2, as measured with a radiometer (Model IL 1350, International Light, Newburyport, Mass.). Samples were placed under the light source and were stirred during the irradiations. Before and after the irradiations, samples were kept in the dark.
Bone marrow transplantation and chimerism assay. Two month old Ly-5.2 mice were used as recipients in the BM reconstitution assays. […] The irradiated recipient Ly-5.2 mice were divided into six groups. The mice in these groups received either HBSS, untreated control bone marrow, or Pc 4-sensitized BM that was photoirradiated with 0, 6, 12 or 18 J/cm^2, respectively. Each mouse received 250,000 donor BM cells.
Six months after transplantation, peripheral blood was obtained by tail-vein puncture and 40 μL samples were aliquoted into tubes that contained the following antibody cocktails. The first tube contained 4 μL of phycoerythrin (PE) conjugated anti-Ly-5.1 antibody (CD45.1, kind gift from Dr. JoseCarlos Segovia) and 1 μL of fluorescein (FITC) conjugated anti-B220 antibody (B cells; Pharmingen, San Diego, Calif.), the second tube contained 4 μL anti-Ly-5.1^PE and 1 μL of anti-CD3^FITC (T cells; Pharmingen), and the third tube contained 4 μL anti-Ly-5.1^PE and 1 μL of anti-Gr-1^FITC (granulocytes; Pharmingen). Following a 20 minute incubation at room temperature, 2 mL of FACS Lysing Solution (Becton Dickinson (BD), San Jose, Calif.) was added to each sample followed by gentle mixing. After 10 minutes the samples were centrifuged and the pellets were resuspended in 3 mL PBS. After centrifugation, the washed pellets were resuspended in 2% vol/vol formalin--PBS pH 7.4 and the samples were analyzed by flow cytometry within 3 hours after staining.

[2] = system: ABE-8.1/2 cells; assay: Uptake of Pc 4, flow cytometry; type: cell-based, murine; conditions: for Pc 4 content / Pc 4 content per cell volume: 15 nM
Description: (§1) Cell lines and culture conditions. WEHI-3 (murine myelocytic leukemia), L1210 (murine lymphocytic leukemia) and P815 (murine mastocytoma) cells were grown in RPMI 1640 (GibcoBRL, Grand Island, N.Y.) supplemented with 10% FBS. BC3A (murine leukemia) cells were grown in RPMI 1640 supplemented with 10 μM β-mercaptoethanol and 10% FBS; ABE-8.1/2 (murine pre-B lymphoma) cells were grown in DMEM (GibcoBRL)--10 μM β-mercaptoethanol--10% FBS. All cell lines were obtained from the American Type Culture Collection (Rockville, Md.) and were cultured at 37° C. in a humidified 5% CO2 -incubator. Prior to incubation with Pc 4, the cell lines were centrifuged and resuspended in phosphate buffered saline (PBS)--10% FBS, pH 7.4.
(§2) In mixing experiments, aliquots of Ly-5.2 BM and cell lines samples were mixed at different ratios. The combined cell concentration of each sample was 1.5×10^7 cells/mL. […] The cell lines were stained with anti-Ly-5.1^FITC. This treatment allowed clear resolution of the relatively small ABE-8.1/2 and BC3A cells from the bone marrow granulocytes. Immediately prior to the analyses, propidium iodide (PI, 0.5 μg/mL) was added to the samples to allow exclusion of dead cells (PI^+) from the analyses. The samples were analyzed in a FACStar^PLUS (BD) that was equipped with an argon ion laser tuned to 488 nm (200 mW) and a dye laser tuned to 610 nm (300 mW). FITC, PE, PI and Pc 4 fluorescence emissions were collected through 530/30, 575/42, 660/10, 670/10 nm band pass filters, respectively.
(§3) Cell size. Microscopic measurements of at least 20 cells were performed using a calibrated micrometer. To determine the cell size of the BM progenitor subsets, the c-kit^+,Sca-1^- and c-kit^+,Sca-1^+ fractions were sorted. The sorted cells were centrifuged and the pellets were resuspended in a 20 μl of HBBS. Samples were deposited onto microscope slides and covered with a cover slip. Cell diameters of 7.7±0.2 (c-kit^+,Sca-1^+), 8.4±0.3 (c-kit^+,Sca-1^-), 10.9±0.2 (BC3A), 11.1±0.2 (ABE-8.1/2), 13.0±0.3 (L1210), 14.2±0.3 (P815), 15.0±0.4 μm (WEHI-3) were obtained.

[3] = system: P815 cells; assay: Uptake of Pc 4, flow cytometry; type: cell-based, murine; conditions: for Pc 4 content / Pc 4 content per cell volume: 15 nM
Description: as §1, §2, §3

[4] = system: WEHI-3 cells; assay: Uptake of Pc 4, flow cytometry; type: cell-based, murine; conditions: for Pc 4 content / Pc 4 content per cell volume: 15 nM
Description: as §1, §2, §3

[5] = 1.5×10^6 cells/ml during incubation
[6] = 1.5×10^7 cells/ml during incubation
[7] = from 8.0×10^5 to 1.5×10^7 cells/mL

## CN(C)CCC[Si](C)(C)O[Si]1(O)n2c3c4ccccc4c2N=C2N=C(N=c4c5ccccc5c(n41)=NC1=NC(=N3)c3ccccc31)c1ccccc12 (stereo not shown) [Pc 4, hydroxysiloxy-dimethylpropyl-N-dimethyl silicon phthalocyanine]
[1]; 1.5×10^7 cells/mL, 18 J/cm^2
  long term repopulating (LTR) ability / survival of the pluripotent stem cells: not affected by the photoinactivation procedure; also recorded: no adverse affect
[1]; pilot, lethally irradiated (8.5 Gy), 70,000 untreated or treated donor BM cells
  mortality: All mice that received 70,000 cells died within one month
[1]; pilot, lethally irradiated (8.5 Gy), 250,000 donor cells (untreated or treated 15 nM, 1.5×10^7 cells/mL, 18 J/cm2), after 4 months, most mice
  Ly-5.1 chimerism in peripheral blood granulocytes, T cells and B cells: > 70%
[1]; six months, 18 J/cm^2
  difference in chimerism levels from untreated BM group: not significant
[1]; six months, 250,000 BM cells, 18 J/cm^2, untreated BM 0.49±0.01 (p=0.42)
  chimerism level, granulocytes: 0.38±0.08
[1]; six months, 250,000 BM cells, 18 J/cm^2, untreated BM 0.50±0.12 (p=0.53)
  chimerism level, B cells: 0.39±0.11
[1]; six months, 250,000 BM cells, 18 J/cm^2, untreated BM 0.72±0.07 (p=0.42)
  chimerism level, T cells: 0.60±0.12
[1]; Pc 4, 0 J/cm^2
  mice died two months after transplant: 1/6
[1]; Pc 4, 6 J/cm^2
  mice died two months after transplant: 1/6
[1]; Pc 4, 18 J/cm^2
  mice died two months after transplant: 1/6
[2]; [5]
  Pc 4 content: 218 ± 29.0 Mean fluorescence/cell
  Pc 4 content per cell volume: 0.30 Mean fluorescence/μm^3
[2]; [6]
  Pc 4 content: 95 ± 7.6 Mean fluorescence/cell
  Pc 4 content per cell volume: 0.13 Mean fluorescence/μm^3
[2]; [7]
  reduction of Pc 4 uptake: 2.5 fold
[3]; [5]
  Pc 4 content: 414 ± 21.5 Mean fluorescence/cell
  Pc 4 content per cell volume: 0.28 Mean fluorescence/μm^3
[3]; [6]
  Pc 4 content: 152 ± 17.2 Mean fluorescence/cell
  Pc 4 content per cell volume: 0.10 Mean fluorescence/μm^3
[3]; [7]
  reduction of Pc 4 uptake: 2.8 fold
[4]; [5]
  Pc 4 content: 296 ± 8.5 Mean fluorescence/cell
  Pc 4 content per cell volume: 0.17 Mean fluorescence/μm^3
[4]; [6]
  Pc 4 content: 57 ± 4.7 Mean fluorescence/cell
  Pc 4 content per cell volume: 0.03 Mean fluorescence/μm^3
[4]; [7]
  reduction of Pc 4 uptake: 5.1 fold
